Measured values: patent US11028127B2, “Peptides capable of reactivating p53 mutants” (Yeda Research and Development Co. Ltd., priority 2013, dated 2021)

How the values were obtained:
Format in all cases: cell-based
[1] = target: T1, R249S p53 (Homo sapiens, UniProt P04637, R249S); assay: TK-RGC-luc luciferase reporter assay in H1299 p53−/− cells; conditions: peptides added 24 hours after transfection, read at 48 hours
T1 construct: expressed in transfected cells; host or cells: H1299 p53-/- cells, transient transfection
Procedure: (§1) FIG. 12 is a bar graph illustrating the relative luciferase activity (cLuc/gLuc) as measured in the various tested samples. Transient transfection of H1299 p53^−/− cells was performed with plasmids expressing WT p53, R175H p53, R249S p53 or empty vector as control, together with TK-RGC-luc, where luciferase expression is under control of a tandem array of multiple p53-responsive elements. 24 hours after transfection, cells were treated with the test peptides. 48 hours after transfection, a sample of the culture medium was taken for bioluminescence measurements.
(§2) The oligonucleotide (RGC-W) that has the sequence 5′-[…]-3′ (SEQ ID NO:362), and the oligonucleotide mutant RGC oligonucleotide (RGC-M) that has the sequence 5′-[…]-3′ (SEQ ID NO:363), are both derived from Kern et al. (Kern, S. E., et al., Identification of p53 as a sequence-specific DNA-binding protein. Science, 1991. 252(5013): p. 1708-11), and serve as a consensus binding sites for WT p53.
(§3) These motifs were cloned into the KPN and Eco53IK sites in pCLuc Mini-TK 2 Vector (NEB, Cat No. N0324S ). The Luciferase construct was used to assess transcriptional activation of p53 in test cells.
(§4) H1299 p53-null cells were cultured overnight and then transfected with the luciferase constructs using MaxFect Transfection Agent (Mediatech) according to the manufacturer's protocol. Prior to the transfection, cell medium was exchanged to OPTI-MEM.
(§5) The cells were treated with different peptides 24 hours after transfection. After additional 24 hours, growth medium was collected to 96 black plates: 40 μl for Cluc assay, and 20 μl for Gluc assay. Assay was performed using Turner BioSystems Modulus Microplate. Value was calculated by Cluc/gluc/NT (non-treated cells).
(§6) As additional screening strategy used to identify reactivating peptides was performed in vivo and is based on a reporter gene assay. It measures p53 transcriptional activity by quantifying the activity of a reporter gene, placed under the control of a promoter containing 17 repeats of a p53 consensus binding site (RGC). The luciferase assay is performed on living cells and therefore provides an indication on the effect of test peptides on Mut-p53 function in the context of intact cells.
(§7) For the in vivo luciferase based screening, H1299 cells were used. Transient transfection of these p53^−/− cells was performed with vectors expressing WT p53, R175H p53, R249S p53 or empty vector as control (Suad, O., et al., Structural basis of restoring sequence-specific DNA binding and transactivation to mutant p53 by suppressor mutations. J. Mol. Biol., 2009. 385(1): p. 249-65). Cells were also co-transfected with TK-RGC-luc (CAT. No. NEB, N0324S). 24 hours after transfection, cells were treated with the test peptides. […]

[2] = target: T2, R175H p53 (Homo sapiens, UniProt P04637, R175H); assay: as above; conditions: peptides added 24 hours after transfection, read at 48 hours
T2 construct: a hot spot full length mutant p53 Mut-p53 R175H (R175H p53); expressed in transfected cells; host or cells: H1299 p53-/- cells, transient transfection
Procedure: as §1, §2, §3, §4, §5, §6, §7

[3] = test system: Mut-p53-expressing human cancer cell lines; assay: Crystal violet viability assay on further cell lines; conditions: cell line not stated
Procedure: Cells were cultured in 96 wells plates with 2500-4000 cells/well in 0.1 ml and incubated overnight at 37° C. in order to adhere to the plate. Serial dilutions of different peptides (0.5 μg/ml) were added in 0.1 ml aliquots and the plates incubated for additional 48 h at 37° C. Then medium was removed and cell lysis was determined by staining the cells with crystal violet (0.5%) in methanol/water (1:4, v/v), 50 μl each well, for 10 min, followed by 3 washes with PBS. Afterwards, 10% acetic acid (50 μl) was added to each well and shaken for 10 min. Then, automatic plate reading was performed at 595 nm.
An important indication for the reactivating peptides activity is their effect in-vivo on cancer cells that express Mut-p53. In particular, reactivating peptides that can cause specifically Mut-p53-dependent death of cancer cells, with minimal toxic effects on normal cells are desired. A crystal-violet based viability assay, in which crystal-violet is employed to stain cells that adhere to the plate and therefore the amount of dye is proportional to cell number was used to determine the effect of the various test peptides on Mut-p53-dependent death.
Cells were plated in 96-well plates, at calibrated density that allows them to grow for 48 hours without reaching confluence. Peptides are added 6 hours later. […]

Sequence: YRRLLIGMMWRRRRRRRRRRR [pCAP-68]
- transcription from TK-RGC-luc in the presence of R249S p53 [1]: induce transcription from TK-RGC-luc
- transcription from TK-RGC-luc in the presence of R175H p53 [2]: induce transcription from TK-RGC-luc
- effect on cell viability [3]: massive cell death
